Assay results taken from US6696267B2, “Methods and compositions for screening Icrac modulators” (Warner-Lambert Company, priority 2000, dated 2004).
Like-named read-outs stand apart in the source and are kept apart here.

Tests used:
[1] = tested on: NFAT-driven β-lactamase synthesis (Icrac activation) in NFAT-β-lactamase Jurkat cells; assay: NFAT-β-lactamase gene-reporter assay in Jurkat cells (Jk-NFAT-βlac), CCF2-AM ratio 460/535; format: cell-based; settings: for Effect on β-lactamase synthesis at 10 μM / Effect on TG-driven β-lactamase synthesis / NFAT activation: Jurkat cells; for Effect on β-lactamase synthesis at 10 μM: TG 1 μM (FIG. 4); for Effect on TG-driven β-lactamase synthesis / NFAT activation: with TG 1 μM for 4 h (FIG. 4)
Protocol: (§1) Jurkat cell lines (Jk-NFAT-βlac) stably transfected with plasmid containing 3×NFAT-β-lactamase reporter gene (for NFAT promoter sequence see (19)), and plasmid containing CMV-β-lactamase (Jk-CMV-βlac), where CMV is a constitutively active promoter as well as HEK cells (HEK-CRE-βlac) with 3×CRE-β-lactamase (the CRE promoter contains CRE box sequence of CGTCA (20)) were obtained from Aurora Biosciences Corp (San Diego, Calif.).
Jurkat cells were grown in RPMI 1640 medium supplemented with 10% foetal bovine serum, 2 mM L-glutamine, 1 mM NEAA, 1 mM Na pyruvate, 25 mM HEPES, pH 7.4, gentamicin 100 μg/ml. HEK-293 cells were grown in MEM glutamax, supplemented with 10% FBS, gentamycin 100 μg/ml, HEPES 20 mM. Medium for stable cell propagation contained 250 μg/ml Zeocin (Jk-NFAT-βlac) or 800 μg/ml Geneticin (Jk-CMV-βlac, HEK-CRE-βlac). […] Cells were then loaded, for 1 h in the dark at room temperature, with 12 μM CCF2-AM (13). Fluorescence was monitored with a Fluostar (BMG, Germany) fluorimeter. Excitation was at 405 nm, and emission record at 460 nm and 535 nm. The ratio (460 nm/535 nm) of fluorescence unit (F.U.) was estimated after correction for background (medium without cells). HEK-CRE-βlac were stimulated using Forskolin 10 μM in the medium mentioned above (4×10^4 cells/well). All reagents were added with the stimulator agent (e.g. TG or forskolin), unless noticed.

[2] = tested on: constitutive β-lactamase (CMV-driven) in Jurkat cells; assay: Constitutive CMV-β-lactamase Jurkat cell assay (Jk-CMV-βlac); format: cell-based; settings: Jk-CMV-βlac cells (FIG. 6, DMSO 3%)
Protocol: as §1
Jurkat cells were grown in RPMI 1640 medium supplemented with 10% foetal bovine serum, 2 mM L-glutamine, 1 mM NEAA, 1 mM Na pyruvate, 25 mM HEPES, pH 7.4, gentamicin 100 μg/ml. HEK-293 cells were grown in MEM glutamax, supplemented with 10% FBS, gentamycin 100 μg/ml, HEPES 20 mM. Medium for stable cell propagation contained 250 μg/ml Zeocin (Jk-NFAT-βlac) or 800 μg/ml Geneticin (Jk-CMV-βlac, HEK-CRE-βlac). In a 96-well plate, 1 μM Thapsigargin (TG) was used to stimulate NFAT Jurkat cells (10^5 per well), for 4 h at 37° C., 5% CO2, in Dulbecco's Modified Essential Medium ([Ca^++] 1.8 mM) 10% FBS, gentamycin 100 μg/ml. Cells were then loaded, for 1 h in the dark at room temperature, with 12 μM CCF2-AM (13). Fluorescence was monitored with a Fluostar (BMG, Germany) fluorimeter. Excitation was at 405 nm, and emission record at 460 nm and 535 nm. The ratio (460 nm/535 nm) of fluorescence unit (F.U.) was estimated after correction for background (medium without cells). […]

[3] = tested on: Icrac channel; assay: Optical measurement of intracellular [Ca++] with Fura-2; format: cell-based; settings: Fura-2 as probe
Protocol: Loading with 2 μM fura-2-AM was performed with a 3×10^6 cells suspension for 30 min at 37° C., in Hanks buffer saline solution (HBSS). Cells were washed and resuspended twice to minimize extracellular dye. Fura-2 fluorescence measurements were carried out in a water-jacketed cuvette (room temperature) with continuous stirring, containing 1 ml of the cells suspension. Fluorescence was monitored with a Shimadzu spectrofluorophotometer by continuously (1 sec intervals) collecting excitation signals at 340 nm and 380 nm and emission signal at 510 nm. Maximal and minimal fluorescence were obtained by adding ionomycin 25 μM and EGTA (20 mM) respectively and sequentially at the end of the experiment. The ratio of excitation signals at 340 nm and 380 nm was used to calculate [Ca^++] as previously described (21) assuming a Kd of 155 nM.

[4] = tested on: NFAT-β-lactamase Jurkat cells; assay: CCF2-AM loading capacity of NFAT-β-lactamase Jurkat cells (F.U. at 535 nm); settings: for Toxic effects (weak loading): 50 μM, data not shown
[5] = tested on: NFAT-driven β-lactamase synthesis in p815 mastocyte cells; assay: NFAT-β-lactamase gene-reporter assay in p815 mastocytes (p815-NFAT-βlac); format: cell-based; settings: mastocytes (not shown)
Protocol: The mastocyte monoclonal cell line (p815-NFAT-βlac) stably transfected with plasmid containing 3×NFAT-β-lactamase were obtained as follow. Cells (1.10^7/ml) were electroporated in a 0.4 cm gap cuvette using a BioRad Gene Pulser II at 960 μF and 300V, using 20 μg of pcDNAIII 3×NFAT-β-lactamase Zeomycin expression vector (from Aurora Biosciences Corp; San Diego, Calif.) in DMEM medium. After 48 h, electroporated p815 cells were selected for 2 weeks using 250 μg/ml Zeocin (InVitrogen, Calif.). A pool of TG responding cells were first sorted, using FACS Vantage (Becton Dickinson, Calif.), and a week after, 200 cells were monosorted (one cell per well) from this pool, 15 clones grown up, and were tested as follow.
Jurkat cells were grown in RPMI 1640 medium supplemented with 10% foetal bovine serum, 2 mM L-glutamine, 1 mM NEAA, 1 mM Na pyruvate, 25 mM HEPES, pH 7.4, gentamicin 100 μg/ml. HEK-293 cells were grown in MEM glutamax, supplemented with 10% FBS, gentamycin 100 μg/ml, HEPES 20 mM. Medium for stable cell propagation contained 250 μg/ml Zeocin (Jk-NFAT-βlac) or 800 μg/ml Geneticin (Jk-CMV-βlac, HEK-CRE-βlac). […] Fluorescence was monitored with a Fluostar (BMG, Germany) fluorimeter. […] The ratio (460 nm/535 nm) of fluorescence unit (F.U.) was estimated after correction for background (medium without cells). […]

[6] = target: β-lactamase; settings: β-lactamase inhibitor; cited from earlier work

Question: Which “Effect on β-lactamase synthesis when added after TG stimulation” value ([1]; added as long as 4 hrs after TG stimulation) does the source give for C[C@@H]1C[C@@H]([C@H](O)CC2CC(=O)NC(=O)C2)C(=O)[C@@H](C)C1 [CHX, cycloheximide] here?
Answer: inhibitory effect

Question: For CC(=O)C1=C(O)[C@@H]2[C@H]3c4c[nH]c5cccc(c45)C[C@H]3C(C)(C)N2C1=O [CPA, cyclopiazonic acid], which “Ratio (460 nm/535 nm)” value [1] is on record?
Answer: 0.407 ± 0.041

Question: And the “% total (TG 1 μM)” value ([1]; CPA 10 μM)?
Answer: 59%

Question: Which “Effect on constitutive β-lactamase synthesis” value [2] does the source give for C[S+](C)[O-] [DMSO, dimethyl sulfoxide] here?
Answer: no effect

Question: What about the “Effect on the Icrac channel, [Ca++]i determination” value [3] of the same compound?
Answer: no effect

Question: And the “F.U. at 535 nm, % control” value ([4]; DMSO 0.1%)?
Answer: 99.2%

Question: What about the “F.U. at 535 nm, % control” value ([4]; DMSO 1%) of the same compound?
Answer: 96.1%

Question: What about the “F.U. at 535 nm, % control” value ([4]; DMSO 2%) of the same compound?
Answer: 97%

Question: And the “F.U. at 535 nm, % control” value ([4]; DMSO 4%)?
Answer: 107.7%

Question: And the “F.U. at 535 nm, % control” value ([4]; DMSO 5%)?
Answer: 110.1%

Question: What about the “Interference with the assay” value ([1]; 0.5% final concentration) of the same compound?
Answer: did not hinder the assay

Question: And the “Effect on β-lactamase synthesis when added after TG activation” value ([1]; added 3 hrs after TG activation)?
Answer: did not block β-lactamase synthesis

Question: With COc1ccc([C@@H]2Sc3ccccc3N(CCN(C)C)C(=O)[C@@H]2OC(C)=O)cc1 [Diltiazem] as the compound, how does the “Toxic effects (weak loading)” value [4] read?
Answer: Toxic effects were detected

Question: And the “Effect on β-lactamase synthesis at 10 μM” value [1]?
Answer: did not have any effect

Question: What does the source list for C=C1[C@@H](O)[C@@H]2O[C@]3(CC[C@H](/C=C/[C@@H](C)[C@@H]4CC(C)=C[C@@]5(O[C@H](C[C@@](C)(O)C(=O)O)CC[C@H]5O)O4)O3)CC[C@H]2O[C@@H]1[C@@H](O)C[C@H](C)[C@H]1O[C@@]2(CCCCO2)CC[C@H]1C [Okadaic acid, okadaic acid]?
Answer: Effect on β-lactamase synthesis [5]: blocked the β-lactamase synthesis; Effect on TG-driven β-lactamase synthesis / NFAT activation [1]: blocked the β-lactamase synthesis

Question: Which results are given for CCCCCCCCCCCCCC(=O)O[C@@H]1[C@@H](C)[C@@]2(O)[C@@H](C=C(CO)C[C@]3(O)C(=O)C(C)=C[C@@H]23)[C@@H]2C(C)(C)[C@]12OC(C)=O [PMA, phorbol myristate acetate]?
Answer: Ratio (460 nm/535 nm) [1]: 0.012 ± 0.008; % total (TG 1 μM) ([1]; PMA 10 nM): 2%

Question: For C/C=C(/C)C(=O)O[C@H]1C(C)=C2[C@H]([C@@H]1OC(=O)CCCCCCC)[C@@](C)(OC(C)=O)C[C@H](OC(=O)CCC)[C@@]1(O)[C@H]2OC(=O)[C@@]1(C)O [TG, thapsigargin], which “β-lactamase synthesis versus TG concentration” value ([1]; 5-10 μM TG) is on record?
Answer: decrease was observed

Question: And the “% total (TG 1 μM)” value ([1]; TG 1 μM)?
Answer: 100%

Question: What about the “Ratio (460 nm/535 nm)” value ([1]; TG 1 μM) of the same compound?
Answer: 0.688 ± 0.035

Question: What about the “Relative potency as Icrac activator (in words)” value ([1]; Table 1) of the same compound?
Answer: most active Icrac activator

Question: And the “β-lactamase synthesis versus TG concentration” value ([1]; concentrations higher than 1 μM (FIG. 2C))?
Answer: did not further increase the β-lactamase synthesis

Question: And the “β-lactamase activity with thapsigargin alone” value ([1]; conventional conditions, 0.4 mM [Ca++] (FIG. 2B))?
Answer: weak

Question: With C[C@]1(Cn2ccnn2)[C@H](C(=O)O)N2C(=O)C[C@H]2S1(=O)=O [Tazobactam] as the compound, how does the IC50 ([1]; Homo sapiens, Jurkat, NFAT-driven (FIG. 4), read-out: IC50, block of NFAT-driven β-lactamase) read?
Answer: 2000 nM

Question: And the Ki [6]?
Answer: 700 nM

Question: Which “Toxic effects (weak loading)” value [4] does the source give for COc1ccc(CCN(C)CCCC(C#N)(c2ccc(OC)c(OC)c2)C(C)C)cc1OC (stereo not drawn) [Verapamil] here?
Answer: Toxic effects were detected

Question: And the “Effect on β-lactamase synthesis at 10 μM” value [1]?
Answer: did not have any effect

Question: For calyculin, which “Effect on TG-driven β-lactamase synthesis / NFAT activation” value [1] is on record?
Answer: blocked the NFAT activation in a dose dependent manner

Question: With phytohemaggutinin [PHA] as the compound, how does the “% total (TG 1 μM)” value ([1]; PHA 1 μg/ml) read?
Answer: 41%

Question: What about the “Ratio (460 nm/535 nm)” value ([1]; PHA 1 μg/ml) of the same compound?
Answer: 0.280 ± 0.116

Question: And the “% total (TG 1 μM)” value ([1]; PHA 10 μg/ml)?
Answer: 84%

Question: What about the “Ratio (460 nm/535 nm)” value ([1]; PHA 10 μg/ml) of the same compound?
Answer: 0.578 ± 0.040
